Patent publication US10632208B2, “Peptide-mediated drug delivery across epithelial barrier” (Purdue Research Foundation, priority 2017, dated 2020)
Entries after “also recorded” stand apart in the source; their conditions may differ.

How the values were obtained:
MLCK = experiment: Immunoblot of MLCK and P-MLC in whole-cell Caco-2 lysates; assay type: cell-based, human; details: pre-treatment prior to infection with WT strain, relative to uninfected cells
Protocol: (§1) To extract the proteins from Caco-2 cells, cells were seeded in 6-well plates for 14-21 days. Following treatment, the cells were washed, scraped from the bottom of 6-well plates, suspended in PBS, and pelleted by centrifugation. Total protein from Caco-2 cells was extracted using the M-PER Extraction Kit (Thermo Fisher Scientific). Detergent-insoluble (membrane) and detergent-soluble (cytosolic) proteins were isolated using a Mem-Per Eukaryotic Protein Extraction Kit (Thermo Fisher Scientific) while the cytosolic and nuclear proteins were extracted using NE-PER Extraction Reagent (Thermo Fisher Scientific). To extract proteins from ileal epithelial cells, the epithelial cell fraction from ileal tissues were isolated as described above and the detergent-insoluble and the detergent-soluble proteins were isolated using a Mem-Per Eukaryotic Protein Extraction Kit.
(§2) To extract total protein from intact bacterial cells, sample solvent buffer and sonication (3 cycles of 20 min each) were used. […] The protein concentrations were determined by BCA assay (Thermo Fisher Scientific), and separated on SDS-PAGE gels (10-12.5% polyacrylamide) and electro-transferred to polyvinylidene difluoride (PVDF) membrane (Millipore). […] To compare the reaction intensities, the average band densities were determined using Quantity One software (Bio-Rad). […]

L. monocytogenes [1] = experiment: Intracellular invasion of L. monocytogenes in Caco-2 cells (gentamicin protection); assay type: cell-based, Listeria monocytogenes
Protocol: For bacterial invasion analysis, monolayers were washed with PBS after 1 h of infection (MOI, ˜50) and incubated with DMEM-FBS (10%) containing gentamicin (50 μg/mL) for 1 h. Caco-2 cells were lysed with 0.1% Triton X, and the internalized bacteria were enumerated by plating.

Caco-2 cell monolayers = experiment: Transepithelial electrical resistance (TEER) of Caco-2 monolayers on Transwell inserts; assay type: cell-based, human; details: for effect on Caco-2 TEER in LAP-treated cells: BAY 10 μM or PDTC 100 μM
L. monocytogenes [2] = experiment: Translocation of L. monocytogenes through polarized Caco-2 monolayers on Transwell filter-inserts; assay type: cell-based, Listeria monocytogenes; details: for effect on translocation of the lap strain: 30 min pretreatment, BAY 10 μM or PDTC 100 μM
Protocol: Caco-2 cells were grown as monolayers on Transwell inserts with 3.0 μm pores (Corning-Costar) for up to 14-21 days. TEER was measured to monitor the monolayer integrity (Millicells Voltmeter, Millipore). A TEER value of at least 200 Ω/cm^2 (±10) was used as the basal value to monitor the monolayer integrity. Bacterial cells were washed three times in PBS and resuspended in DMEM-FBS (10%) at a MOI of ˜50 and were added to the apical side of the Transwell system, and after 2 h incubation period at 37° C. in 5% CO2, the liquid was collected from the basal well, and then translocated bacteria were enumerated by plating (Burkholder and Bhunia, 2010). For analysis of FD4 flux, non-metabolizable 4 kDa FITC-labeled dextran (FD4; 5 mg/ml, Sigma-Aldrich) was added with bacteria (MOI, ˜50) resuspended in DMEM-FBS (10%) and added to the apical side. After 2 h incubation at 37° C. in 5% CO2, the liquid was collected from the basal well and fluorescence was measured (Em: 485 nm; Ex: 520 nm; Spectramax, Molecular Devices). For pharmacological inhibition treatments, PDTC (100 μM for 30 min pre-treatment; R&D Systems), Bay-11-7085 (10 μM for 30 min pre-treatment; Sigma-Aldrich), ML-9 (20 μM for 30 min pre-treatment; Sigma-Aldrich), PIK (150 μM, 30 min-pre-treatment and kept during 2-h infection) (Zolotarevsky et al., 2002), and Cytochalasin D (1 μg/mL for 1 h; Sigma-Aldrich) were used separately.
For re-association of externally added LAP to the lap^− mutant, bacteria were harvested from 1 ml of overnight grown culture, and the pellet was washed three times in PBS before the addition of 1 or 2 μg/mL of purified LAP. The mixture was incubated for 30 min at 30° C. with continuous shaking and then pelleted, washed five times in the PBS, resuspended in DMEM, and used in the aforementioned translocation assay.

[3] = test system: occludin, claudin-1 and E-cadherin; experiment: Immunoblot of junctional proteins in detergent-insoluble fraction of Caco-2 cells; assay type: cell-based, human
Protocol: as §1, §2

NF-κB(p65) = experiment: Immunoblot of NF-κB activation in Caco-2 cytoplasmic and nuclear extracts; assay type: cell-based, human; details: BAY 10 μM or PDTC 100 μM, Caco-2 cells
Protocol: as §1
To extract total protein from intact bacterial cells, sample solvent buffer and sonication (3 cycles of […]) were used. To isolate the cell wall-associated proteins bacterial pellets were resuspended in 0.5 ml protein extraction buffer (0.5% SDS, 10 mM Tris at pH 6.9), and incubated at 37° C. for 30 min with agitation. The samples were centrifuged (14,000×g, 10 min, 4° C.), and the supernatants (containing cell wall-associated proteins) were retained. Halt proteases and phosphatase inhibitors (Thermo Fisher Scientific) were used during all of the protein extraction procedures. The protein concentrations were determined by BCA assay (Thermo Fisher Scientific), and separated on SDS-PAGE gels (10-12.5% polyacrylamide) and electro-transferred to polyvinylidene difluoride (PVDF) membrane (Millipore). The membranes were then blocked in 5% nonfat dry milk (NFDM) in 0.1 M Tris-buffered saline, pH 7.5 (TBS) containing 0.1% Tween 20 (TBST) for at least 1 h. All of the primary antibodies were diluted in 5% bovine serum albumin (BSA) or 5% NFDM in TBST and incubated overnight. Secondary antibodies (1:2000 in 5% NFDM in TBST) incubated for 1 h at 37° C., and a chemiluminescence method was performed using LumiGLO reagent (Cell Signaling). The membranes were exposed to X-ray films or visualized using the Chemi-Doc XRS system (Bio-Rad). To immunoprobe the same membrane with another antibody, the originally bound antibodies from the membranes were removed by incubating the membranes in Restore Western Blot Stripping Buffer (Thermo Fisher Scientific) according to the manufacturer's protocol. To compare the reaction intensities, the average band densities were determined using Quantity One software (Bio-Rad). Densitometry reports represent the mean±SEM after normalization to the loading control and is presented as % change of protein with the average for untreated cells (control) set at 100%. Immunoblots and densitometric reports are representative of 2-3 independent experiments.

SMILES | levels of MLCK and P-MLC in whole cell lysate (MLCK) | effect on intracellular invasion of the WT strain (L. monocytogenes [1]) | effect on Caco-2 TEER in LAP-treated cells (Caco-2 cell monolayers) | effect on translocation of the lap strain (L. monocytogenes [2]) | effect of the inhibitor alone on expression of junctional proteins [3] | effect on L. monocytogenes-induced redistribution of occludin, claudin-1 and E-cadherin ([3]; PIK 150 μM or BAY 10 μM, 30 min, prior to WT infection (MOI 50, 45 min)) | effect on LAP-mediated NF-κB activation (NF-κB(p65)) | effect of the inhibitor alone on Caco-2 TEER (Caco-2 cell monolayers) | increase of translocation of WT (L. monocytogenes [2]; cytochalasin D 1 μg/mL for 1 h) | effect on translocation of WT and ΔinlA strains (L. monocytogenes [2]; PIK 150 μM or ML-9 20 μM, MOI 50)
CC(C)(C)c1ccc(S(=O)(=O)/C=C/C#N)cc1 [BAY, BAY 11-7085] | unchanged levels | did not affect | restored | no apparent effect | no effect | prevented; also recorded: Restoration | inhibited | – | – | –
C=C1[C@@H](C)[C@H]2[C@H](Cc3ccccc3)NC(=O)[C@]23[C@H](OC(C)=O)/C=C/[C@@](C)(O)C(=O)[C@@H](C)C/C=C/[C@H]3[C@@H]1O [Cytochalasin D] | – | low | – | – | – | – | – | very low | approximately 2.5 fold | –
O=S(=O)(c1cccc2c(Cl)cccc12)N1CCCNCC1 [ML-9] | – | none of these inhibitors, affected the intracellular invasion capabilities | – | – | – | – | – | – | – | significantly reduced
S=C(S)N1CCCC1 [PDTC, pyrrolidine dithiocarbamate] | – | did not affect | restored | no apparent effect | – | – | inhibited | did not affect | – | –
